The text below walks through data of ChEMBL document CHEMBL1201862, “PubChem BioAssay data set” (2004).

Some test systems named below: DMS-273; LXFL 529; HOP-18; SNB-78; RXF 631; M19-MEL; DMS-114; XF498; KM-20L2.
Experiment in all cases: growth of human tumour cells (NCI), 48 h

Structures are written as SMILES.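 Growth conditions: 96-well plates. Treatment: test compound, 48 hours, 5 concentrations. Analysis: linear interpolation between bracketing concentrations; unreached endpoints set to highest concentration. Here, GI50 denotes the concentration required for 50% inhibition of growth.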 Calls of active or inactive are those of the source. Cut-off read from the data, not from the text of the source: active = GI50 up to about 1.1 µM and inactive = higher.

In the case of `COc1ccc(/N=N/c2c(-c3ccccc3)nn(C(=O)CC(=O)Nc3ccc(OC)cc3)c2-c2ccccc2)cc1`, the GI50 was > 100 µM (inactive) in the assay with DMS-273; 60.5 µM (inactive) in the assay with LXFL 529; 84.3 µM (inactive) in the assay on HOP-18; 34.6 µM (inactive) with SNB-78; 59.3 µM (inactive) in the assay on RXF 631; > 100 µM (inactive) in the assay with M19-MEL. For the same molecule, the GI50 in the assay on DMS-114 was 60 µM (inactive); in the assay on XF498 it was 27 µM (inactive).
Consider `O=C1/C(=C/c2ccccc2)CNC/C1=C\c1ccccc1`, for which the GI50 in the assay with DMS-273 is 0.721 µM (active); in the assay with LXFL 529 it was 1.49 µM (inactive); in the assay with HOP-18, 11 µM (inactive); in the assay on SNB-78, 10.4 µM (inactive); with RXF 631, 2.91 µM (inactive); in the assay with KM-20L2, 1.39 µM (inactive). Besides, the values for the GI50 with M19-MEL, with DMS-114 and with XF498 were 1.02 µM (active), 2.11 µM (inactive) and 2.32 µM (inactive), respectively.
